The text below walks through data of paper PMC4519859, “Synthesis and Biological Evaluation of Novel Dehydroabietic Acid Derivatives Conjugated with Acyl-Thiourea Peptide Moiety as Antitumor Agents” (International Journal of Molecular Sciences, 2015).

What all share (format): cell-based, human
Test [1] relates to HeLa cells. Nature of the test: Hoechst 33258 staining. The settings on record: 10 μM, 12 and 24 h. The method, then: Hoechst 33258 which stains the cell nucleus, is a membrane permeable dye with blue fluorescence. Live cells with uniformly light blue nuclei were obviously detected under the fluorescence microscope after treatment with Hoechst 33258 whereas apoptotic cells had bright blue nuclei due to karyopyknosis and chromatin condensation. However, the nuclei of dead cells could not be stained. HeLa cells treated with compound 9n at 10 μM from 12 to 24 h were stained with Hoechst 33258. HeLa cells not treated with compound 9n were used as control for 24 h.
General procedure for Hoechst 33258 staining: cells grown on a sterile cover slip in six-well tissue culture plates were treated with compounds for a certain range of time. The culture medium containing compounds was removed, and the cells were fixed in 4% paraformaldehyde for 10 min. After being washed twice with PBS, the cells were stained with 0.5 mL of Hoechst 33258 (Beyotime, Jiangsu, China) for 5 min and then again washed twice with PBS. The stained nuclei were observed under a Nikon ECLIPSETE2000-S fluorescence microscope using 350 nm excitation and 460 nm emission.

Test [2] has as its system HeLa cells. Nature of the test: Cell cycle distribution by PI flow cytometry. The settings on record: 10, 15 μM, 48 h. How it is done:
Many anticancer drugs interact with cells leading to cell growth arrest. To determine the possible role of cell cycle arrest in DHAA derivative induced growth inhibition, HeLa cells were treated with different concentrations of compound 9n. Cell cycle distribution was investigated by flow cytometric analysis after staining of the DNA with propidium iodide (PI).
General procedure cell cycle: HeLa cells were maintained in Dulbecco’s modified Eagle’s medium with 10% fetal calf serum in 5% CO2 at 37 °C. Cells were harvested by trypsinization and rinsed with PBS. After centrifugation, the pellet (10^5–10^6 cells) was suspended in 1 mL of PBS and kept on ice for 5 min. The cell suspension was then fixed by the drop-wise addition of 9 mL precooled (4 °C) 75% ethanol with violent shaking. Fixed samples were kept at 4 °C until use. For staining, cells were centrifuged, resuspended in PBS, digested with 500 μL of RNase A (250 mg/mL), and treated with 25 μL of propidium iodide (PI) (0.15 mM), then incubated for 30 min at 4 °C. PI-positive cells were counted with a FACScan Fluorescence-activated cell sorter (FACS). The population of cells in each cell-cycle phase was determined using Cell Modi FIT software (Becton Dickinson).

Test [3] relates to HeLa cells. Nature of the test: AO/EB staining. To be noted: 10 μM, 12 and 24 h. The method, then: The cytotoxicity of compound 9n at a concentration of 10 μM against HeLa cells from 12 to 24 h was detected by AO/EB staining, and Hela cells not treated with the 9n were used as control for 48 h. […] Also due to the AO uptake, control cells appeared green while 9n treated cells appeared green to intense green as apoptotic cells had much more permeable membranes.
Cells were seeded at a concentration of 5 × 10^4 cell/ mL in a volume of 2 mL on a sterile cover slip in six-well tissue culture plates. Following incubation, the medium was removed and replaced with fresh medium plus 10% fetal bovine serum and supplemented with compound 9n (15 μM). After the treatment period, the cover slip with monolayer cells was inverted on a glass slide with 20 μL of AO/EB stain (100 mg/mL). Fluorescence was read on a slide with 20 μL of AO/EB stain (100 mg/mL) using a Nikon ECLIPSETE2000-S fluorescence microscope ([…], Tokyo, Japan).

Structures are written as SMILES.

As to `CC(C)c1ccc2c(c1)CCC1[C@](C)(C(=O)NC(=S)N[C@H](Cc3ccccc3)C(=O)Nc3ccccn3)CCC[C@]21C` (stereo partly drawn) [Compound 9n, (1R,4aS)-7-Isopropyl-1,4a-dimethyl-N-(((R)-1-oxo-3-phenyl-1-(pyridin-2-ylamino)propan-2-yl)carbamothioyl)-1,2,3,4,4a,9,10,10a-octahydrophenanthrene-1-carboxamide], in the test on HeLa cells [1], the “apoptosis by Hoechst 33258 staining” value was “typical apoptotic morphology”. The cell cycle arrest entry with HeLa cells [2] is “mainly arrested HeLa cells in the S stage”. In addition, the “apoptosis by AO/EB staining” value in the test on HeLa cells [3] is “obvious apoptotic characters”.
